# What was measured:
# MRSA N315 = experiment: MIC, broth microdilution; type: cell-based; details: Staphylococcus aureus, 24 h, read-out: MIC90 MRSA N315
# Procedure: (§1) MIC was determined using the broth microdilution method in accordance with Clinical and Laboratory Standards Institute guidelines. All compounds were dissolved in dimethyl sulfoxide (DMSO; final DMSO concentration of less than 0.5%) and sterile double-distilled water and then diluted with Mueller-Hinton broth (MHB). Each compound’s stock solution was serially twofold diluted, resulting in concentrations ranging from 0.39 to 100 μg/ml, and thereafter added to sterile 96-well plates. All bacterial cell suspensions were adjusted in MHB to attain a starting inoculum of 1 × 10^6 cells/ml. A total of 100 μl volume of the bacterial suspension was then added to each well. Following a 24-hour incubation at 37°C, the optical density at 600 nm (OD600) was confirmed by measuring absorbance at 600 nm with a BioTek microplate reader. […] All measurements were repeated three times with duplicates each time.
# MRSA NCTC 10442 = experiment: MIC, broth microdilution; type: cell-based; details: Staphylococcus aureus, 24 h, read-out: MIC90 MRSA NCTC 10442
# Procedure: as §1
# S. aureus ATCC 29213 [1] = experiment: MIC, broth microdilution; type: cell-based; details: Staphylococcus aureus, ATCC29213, 24 h, read-out: MIC90 S. aureus ATCC 29213
# Procedure: as §1
# E. coli ATCC 25922 = experiment: MIC, broth microdilution; type: cell-based, Escherichia coli; details: Escherichia coli, ATCC25922, 24 h, read-out: MIC90 E. coli ATCC 25922
# Procedure: as §1
# rabbit erythrocytes = experiment: Hemolysis assay; type: cell-based; details: concentration causing 50% hemolysis of red blood cells; 1 hour, 37°C
# Procedure: The hemolytic activity of antimicrobial agents was investigated as previously described ([70]). Briefly, the rabbit erythrocytes were centrifuged at 2500 rpm for 3 min before being washed twice with sterile phosphate-buffered saline (PBS) (pH 7.4). Subsequently, the erythrocytes were diluted with PBS to a final concentration of 8% (v/v). The DMSO-dissolved compounds were twofold serially diluted in PBS to achieve a final concentration with DMSO less than 0.5%. […] Sterile PBS and 0.2% Triton X-100 were used as negative and positive controls, respectively. After 1 hour of incubation at 37°C, the tested samples were centrifuged at 2500 rpm for 5 min, and aliquots of the supernatant were added to 96-well microplates. The hemoglobin release was determined by measuring the absorbance at 576 nm using a BioTek multimode reader. The percentage of hemolytic activity was calculated using the following formula: Hemolysis rate (%) = [OD576 (compound) − OD576 (PBS)]/[OD576 (Triton X-100) − OD576 (PBS)] × 100. All measurements were repeated three times with duplicates each time.
# S. aureus ATCC 29213 [2] = experiment: Time-kill kinetic assay; type: cell-based, Staphylococcus aureus; details: 10× MIC, 24 hours
# Procedure: The bacterial cultures were standardized to obtain an initial density that ranged from 10^5 to 10^6 cells/ml. The cultures were incubated in a shaking bath at 37°C. Viable counts were determined at 0-, 0.5-, 1.0-, 2.0-, 4.0-, 8.0-, and 24-hour intervals by spotting 10-μl aliquots of serially 10-fold diluted cultures onto Mueller-Hinton agar (MHA) plates. […] All measurements were repeated three times with duplicates each time.
# S. aureus ATCC 29213 [3] = experiment: Murine corneal infection model; type: in vivo, mice; details: topical, four times daily for 3 days; XT17 5 mg/ml, vancomycin 50 mg/ml; vs 5% glucose control
# Text: (§2) Female C57BL/6 mice (average weight, 20 g) were used for the in vivo efficacy experiments. Mice were housed in a specific pathogen–free facility on a 12-hour light-dark cycle, under the condition with ad libitum access to irradiation sterilized rodent diet and aseptic water. […]. These in vivo experiments were approved by the Experimental Animal Center of South China Agricultural University and conducted in accordance with the policies of the Ministry of Health of China.
# (§3) The in vivo efficacy of compound XT17 was investigated in a murine corneal infection model. Before infection, the mice were immunosuppressed with three intraperitoneal injections of cyclophosphamide (100 mg/kg) over 5 days. After anesthesia with 2.5% avertin (500 mg/kg, ip), the left corneas of mice were scratched with 15 μl of S. aureus ATCC 29213 or P. aeruginosa ATCC 9027 (approximately 5 × 10^7 CFU/ml). Following 1 day of infection, the infected mice were randomly assigned into […] (n = 5) and subsequently administered with 0.5% compound XT17, 5% glucose solution, 5% vancomycin, or 0.3% gatifloxacin topically. S. aureus–caused murine corneal infections were treated four times a day for three consecutive days. Only 2 days of treatment were given for P. aeruginosa–caused murine corneal infections. On the first day, the drug was administered every 20 min for 1 hour and then three times at 2-hour intervals on the second day. The mice were given a 5% glucose solution as a negative control in the absence of any antimicrobial agent treatment. The infected corneas were collected after the mice were euthanized, and the number of viable bacteria was counted using MHA plates.
# P. aeruginosa ATCC 9027 = experiment: Murine corneal infection model; type: in vivo, mice; details: topical, 2 days; XT17 5 mg/ml, gatifloxacin 3 mg/ml; vs 5% glucose control
# Text: as §2, §3
SMILES,MIC90 (MRSA N315),MIC90 (MRSA NCTC 10442),MIC90 (S. aureus ATCC 29213 [1]),MIC90 (E. coli ATCC 25922),HC50 (rabbit erythrocytes),log decrease in bacterial load (S. aureus ATCC 29213 [2]),log reduction in viable bacterial colonies in the infected corneas (S. aureus ATCC 29213 [3]),log reduction in viable bacterial colonies in the infected corneas (P. aeruginosa ATCC 9027)
"CN[C@H](CC(C)C)C(=O)N[C@H]1C(=O)N[C@@H](CC(N)=O)C(=O)N[C@H]2C(=O)N[C@H]3C(=O)N[C@H](C(=O)N[C@H](C(=O)O)c4cc(O)cc(O)c4-c4cc3ccc4O)[C@H](O)c3ccc(c(Cl)c3)Oc3cc2cc(c3O[C@@H]2O[C@H](CO)[C@@H](O)[C@H](O)[C@H]2O[C@H]2C[C@](C)(N)[C@H](O)[C@H](C)O2)Oc2ccc(cc2Cl)[C@H]1O [VAN, vancomycin, reference compound]",1.56 µg/mL,1.56 µg/mL,0.78 µg/mL,> 50 µg/mL,>200 µg/mL,4.56 log,5.57 log,
"COc1c(N2CCNC(C)C2)c(F)cc2c(=O)c(C(=O)O)cn(C3CC3)c12 (centres unmarked) [gatifloxacin, reference compound]",,,,,,,,3.08 log

# Source: article PMC11881906, “Development of xanthone derivatives as effective broad-spectrum antimicrobials: Disrupting cell wall and inhibiting DNA synthesis” (Science Advances, 2025)
